Results taken from PMC10906223 (JCI Insight, 2024).
Values joined by “and” are separate entries in the source; they are usually repeats but may differ in a detail not shown here. Identical values can stand only once.

Assays:
Assay type in all cases: in vivo, mouse
[1] = tested on: diabetic NOD mice; test: Plasma insulin in NOD mice after treatment; details: WCDD301-treated diabetic NOD mice; Figure 6C
Method: (§1) Terminal blood was collected into microfuge tubes containing K2-EDTA (supplemented by 45 mM phenylmethylsulphonyl fluoride and 0.77 μM aprotinin) through cardiac puncture. Plasma was separated by centrifugation (2,000g for 10 minutes at 4°C) and kept at –80°C until analysis. Plasma samples with hemolysis were excluded from the study. […] Values of BUN, creatinine, ALB, ALT, and AST were determined by a Roche Cobas C501 Autoanalyzer as performed by the Washington University Diabetes Research Center Translational Diagnostics Core. Reference intervals of blood chemistry parameters for inbred NOD mice were extracted from the Mouse Phenome Database (https://phenome.jax.org/).

[2] = tested on: α cells of NOD mice islets; test: α cell numbers and sizes in islets of NOD mice; details: 11-week administration; Supplemental Figure 7
Method: Pancreata of NOD mice (females, n = 3 per group) from nondiabetic, diabetic placebo-treated, and diabetic WCDD301-treated cohorts were excised; fixed in 10% buffered formalin for 5 days; and treated with ethanol 70% for 2 days before paraffin embedding. The paraffin-embedded tissue blocks were longitudinally sectioned in 5 μm slices and fixed on microscope slides. Following deparaffinization (through incubation in graded xylene, graded ethanol, and PBS), permeabilization (using 0.1% Triton X-100 in PBS), and background blocking (using 5% BSA solution containing 0.1% Tween 20), samples were incubated with primary antibodies (mouse anti-glucagon, Abcam, catalog ab10988; above-mentioned rabbit anti-EphA4), secondary antibodies (goat anti-mouse IgG Alexa Fluor 488; Invitrogen, catalog A-11001; goat anti-rabbit IgG Alexa Fluor 633, Invitrogen, catalog A-21070), SPY555-Actin (Cytoskeleton, catalog SC202), and DAPI. Image acquisition and analysis were performed as for dispersed islet cells. […] ROIs were manually drawn around each islet, background signal was removed by thresholding, and intensity of glucagon signal was determined and normalized by the islet surface area. To determine sizes of α cells per islet, ROIs were manually drawn around α cells in each islet. […]

[3] = tested on: diabetic NOD mice; test: Daily urine glucose in NOD mice
Method: We preweighed WCDD301 into microfuge tubes and reconstituted it using deionized water. Using a 10 μL pipette tip, we placed the calculated dose of WCDD301 (at the volume range of 1–1.5 μL) within the center of pearls. WCDD301 was placed into pearls 30–45 minutes before administration. For oral administration of pearls, we designed an applicator using a disposable plastic transfer pipette and syringe plunger lubricated with olive oil. Food intake and body weight in each experimental group (diabetic WCDD301-treated, diabetic placebo-treated, and nondiabetic placebo-treated NOD mice) were monitored daily for 4 weeks. Urine glucose was measured from individually caged NOD mice (nondiabetic placebo treated n = 2, diabetic placebo treated n = 2, and diabetic WCDD301 treated n = 4, 21–23 weeks old) with metabolic cages. Urine glucose was monitored every 24 hours for 10 days by semiquantitative measurements (P-STICKS, Millpledge Veterinary).

[4] = tested on: nondiabetic NOD mice; test: Blood glucose in nondiabetic NOD mice under WCDD301 dosing; set-up: Blood glucose (Supplemental Figure 6B): unit: mg/dL; details: for Blood glucose (Supplemental Figure 6B): WCDD301-treated, individual mice M1-M5
Method: We applied the following therapeutic regimens in the fed state for oral dosing of pearls containing WCDD301. The therapeutic regimen for diabetic NOD mice with moderate hyperglycemia (n = 6–9; 6 females/3 males) or nondiabetic ones with blood glucose levels of < 140 mg/dL (females, n = 5) was dose 7.5 mg/kg, dosage once a day, and excipient SAIB-Agar, 50–60 mg. The therapeutic regimen for STZ-induced diabetic mice with early severe hyperglycemia (n = 3, placebo group; n = 4 treatment group, females) was dose 10 mg/kg, dosage once a day, and excipient SAIB-Agar-malic acid, 50–60 mg.

[5] = tested on: diabetic NOD mice; test: Intraperitoneal glucose tolerance test in NOD mice; set-up: Blood glucose, IPGTT (Figure 6D): unit not given here; details: for Blood glucose, IPGTT (Figure 6D): Diabetic
Method: Following 5 hours of fasting, NOD mice were injected with 20% sterile glucose solution (i.p. […] body weight; at the volume of 10 times of the body weight). Blood glucose levels were measured before injection by tail nick. Following injection, blood glucose levels were measured at time points of 15, 30, 45, 60, 90, 120, and 180 minutes by using the glucometer. […] Glucose tolerance test was done at 3 time points (8, 14, and 24 hours) after the final WCDD301 administration. Data were plotted using GraphPad Prism software version 4.

[6] = tested on: diabetic NOD mice; test: Plasma somatostatin in NOD mice; set-up: unit not given beside the values; details: WCDD301 group of NOD mice; quantity not given
Method: as §1

CC(=O)OCC(N)(COC(C)=O)COC(C)=O [WCDD301, 2-(acetoxymethyl)-2-aminopropane-1,3-diyl diacetate]
Plasma insulin [1]: Undetectable | Numbers or sizes of α cells (histology) [2]: did not indicate any alterations in numbers or sizes of α cells | Daily urine glucose (Figure 7D) ([3]; Diabetic, WCDD301 treated, Day 10): 0 | Urine glucose, daily monitoring ([3]; diabetic WCDD301-treated mice): phenotypes similar to nondiabetic placebo-treated mice | Development of diabetes, prophylactic administration ([4]; NOD mice): appears to prevent the development of diabetes in NOD mice | Blood glucose (Supplemental Figure 6B) ([4]; Age (week) 10): 127 and 120 and 125 and 115 and 118 | Blood glucose (Supplemental Figure 6B) ([4]; Age (week) 19): 128 and 122 and 121 and 112 and 126 | Effect on euglycemia ([4]; nondiabetic NOD mice, Supplemental Figure 6B): nor did it affect euglycemia | Blood glucose, IPGTT (Figure 6D) ([5]; 8h after WCDD301 dosing (first group, c4-c6), 0 min): 135 and 151 and 125 | Blood glucose, IPGTT (Figure 6D) ([5]; 8h after WCDD301 dosing (first group, c4-c6), 15 min): 160 and 159 and 158 | Blood glucose, IPGTT (Figure 6D) ([5]; 8h after WCDD301 dosing (first group, c4-c6), 30 min): 175 and 165 and 162 | Blood glucose, IPGTT (Figure 6D) ([5]; 8h after WCDD301 dosing (first group, c4-c6), 45 min): 165 and 175 | Blood glucose, IPGTT (Figure 6D) ([5]; 8h after WCDD301 dosing (first group, c4-c6), 60 min): 155 and 145 and 135 | Blood glucose, IPGTT (Figure 6D) ([5]; 8h after WCDD301 dosing (first group, c4-c6), 90 min): 150 and 135 and 114 | Blood glucose, IPGTT (Figure 6D) ([5]; 8h after WCDD301 dosing (second group, c7-c9), 0 min): 140 and 151 and 137 | Blood glucose, IPGTT (Figure 6D) ([5]; 8h after WCDD301 dosing (second group, c7-c9), 15 min): 210 and 206 and 205 | Blood glucose, IPGTT (Figure 6D) ([5]; 8h after WCDD301 dosing (second group, c7-c9), 30 min): 340 and 307 and 321 | Blood glucose, IPGTT (Figure 6D) ([5]; 8h after WCDD301 dosing (second group, c7-c9), 45 min): 380 and 356 and 372 | Blood glucose, IPGTT (Figure 6D) ([5]; 8h after WCDD301 dosing (second group, c7-c9), 60 min): 320 and 395 and 372 | Blood glucose, IPGTT (Figure 6D) ([5]; 8h after WCDD301 dosing (second group, c7-c9), 90 min): 295 and 386 and 368 | Blood glucose, IPGTT (Figure 6D) ([5]; 8h after WCDD301 dosing (second group, c7-c9), 120 min): 135 and 159 and 148 | Blood glucose, IPGTT (Figure 6D) ([5]; 14h after WCDD301 dosing, 0 min): 119 and 140 and 138 | Blood glucose, IPGTT (Figure 6D) ([5]; 14h after WCDD301 dosing, 15 min): 520 and 480 and 450 | Blood glucose, IPGTT (Figure 6D) ([5]; 14h after WCDD301 dosing, 30 min): 650 and 550 | Blood glucose, IPGTT (Figure 6D) ([5]; 14h after WCDD301 dosing, 45 min): 650 | Blood glucose, IPGTT (Figure 6D) ([5]; 14h after WCDD301 dosing, 60 min): 650 and 550 and 468 | Blood glucose, IPGTT (Figure 6D) ([5]; 14h after WCDD301 dosing, 90 min): 555 and 450 and 350 | Blood glucose, IPGTT (Figure 6D) ([5]; 14h after WCDD301 dosing, 120 min): 410 and 325 and 286 | Blood glucose, IPGTT (Figure 6D) ([5]; 14h after WCDD301 dosing, 180 min): 158 and 151 and 140 | Blood glucose, IPGTT (Figure 6D) ([5]; 24h after WCDD301 dosing, 0 min): 320 and 290 and 325 | Blood glucose, IPGTT (Figure 6D) ([5]; 24h after WCDD301 dosing, 15 min): 590 and 480 and 552 | Blood glucose, IPGTT (Figure 6D) ([5]; 24h after WCDD301 dosing, 30 min): 650 and 590 and 610 | Blood glucose, IPGTT (Figure 6D) ([5]; 24h after WCDD301 dosing, 45 min): 650 | Blood glucose, IPGTT (Figure 6D) ([5]; 24h after WCDD301 dosing, 60 min): 590 and 600 and 580 | Blood glucose, IPGTT (Figure 6D) ([5]; 24h after WCDD301 dosing, 90 min): 520 and 590 and 570 | Blood glucose, IPGTT (Figure 6D) ([5]; 24h after WCDD301 dosing, 120 min): 490 and 520 and 505 | Blood glucose, IPGTT (Figure 6D) ([5]; 24h after WCDD301 dosing, 180 min): 510 and 550 and 512 | Glucose tolerance ([5]; NOD mice versus placebo-treated diabetic control): Glucose tolerance was improved | Plasma somatostatin (Figure 7C) [6]: 310.49 and 318.85 and 327.2 and 342.5
